In the supplement of paper PMC12819154, “High-throughput peptide-centric local stability assay extends protein–ligand identification to membrane proteins, tissues and bacteria” (Nature Structural & Molecular Biology, 2025):

What was measured:
Assay in all cases: pEC50 of peptide local stability change
[1] = target: UniProt P0C0L2; details: peptide sequence: GQAHWEGDIKR; direction: stabilized; replicate design: treated separately
Method in brief: (§1)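 Each tabulated entry is a mean pEC50 taken across replicates. Four 50 µl replicates of desalted, MgCl2-supplemented E. coli K-12 BW25113 lysate (1.2 mg ml^−1) were exposed to ATP at seven doses from 10 µM to 10 mM, or to water, for 30 min at 25 °C, then trypsin-digested for 4 min at 22 °C and analysed by DIA LC–MS/MS. Treated/control peptide ratios from every replicate were fitted to a four-parameter log-logistic model, and an entry was kept only if fit R^2 exceeded 0.9 in at least three replicates and the coefficient of variation of the estimate was at most 0.25.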

[2] = target: UniProt P23830; details: peptide sequence: EALGVLHFK; direction: stabilized; replicate design: treated separately
Method in brief: as §1

[3] = target: UniProt P0ACW4; details: peptide sequence: GGISHCTAGGKFVCNDGSISASK; direction: stabilized; replicate design: treated separately
Method in brief: as §1

[4] = target: UniProt P37624; details: peptide sequence: VLASGTPQELVEKR; direction: stabilized; replicate design: treated separately
Chain of UniProt P37624 (P37624 whole entry): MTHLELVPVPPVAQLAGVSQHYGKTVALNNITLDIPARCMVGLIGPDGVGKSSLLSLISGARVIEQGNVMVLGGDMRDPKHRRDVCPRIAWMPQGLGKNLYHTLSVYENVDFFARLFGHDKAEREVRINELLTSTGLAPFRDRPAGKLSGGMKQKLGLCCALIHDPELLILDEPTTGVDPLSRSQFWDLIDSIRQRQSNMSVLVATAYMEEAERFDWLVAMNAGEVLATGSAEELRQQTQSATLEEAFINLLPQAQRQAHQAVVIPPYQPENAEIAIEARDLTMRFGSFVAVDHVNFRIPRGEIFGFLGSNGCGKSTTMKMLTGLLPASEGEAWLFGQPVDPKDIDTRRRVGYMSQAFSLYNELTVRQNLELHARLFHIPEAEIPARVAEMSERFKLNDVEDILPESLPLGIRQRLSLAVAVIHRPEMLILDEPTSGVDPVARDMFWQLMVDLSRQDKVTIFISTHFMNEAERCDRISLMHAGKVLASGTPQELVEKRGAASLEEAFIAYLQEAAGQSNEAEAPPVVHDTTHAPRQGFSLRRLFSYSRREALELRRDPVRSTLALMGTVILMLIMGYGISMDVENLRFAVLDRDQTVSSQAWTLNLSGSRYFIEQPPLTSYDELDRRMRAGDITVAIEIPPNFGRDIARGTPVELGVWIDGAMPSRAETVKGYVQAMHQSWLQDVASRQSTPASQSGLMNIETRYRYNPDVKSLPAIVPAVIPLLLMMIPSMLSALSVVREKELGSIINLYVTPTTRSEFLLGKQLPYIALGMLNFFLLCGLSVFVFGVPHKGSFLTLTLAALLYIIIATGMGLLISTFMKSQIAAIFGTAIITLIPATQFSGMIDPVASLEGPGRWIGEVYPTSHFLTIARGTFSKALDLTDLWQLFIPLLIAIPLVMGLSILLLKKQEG
Method in brief: as §1

[5] = target: UniProt P23538; details: peptide sequence: QVKIEDVPQEQR; direction: stabilized; replicate design: treated separately
Chain of UniProt P23538 (P23538 whole entry): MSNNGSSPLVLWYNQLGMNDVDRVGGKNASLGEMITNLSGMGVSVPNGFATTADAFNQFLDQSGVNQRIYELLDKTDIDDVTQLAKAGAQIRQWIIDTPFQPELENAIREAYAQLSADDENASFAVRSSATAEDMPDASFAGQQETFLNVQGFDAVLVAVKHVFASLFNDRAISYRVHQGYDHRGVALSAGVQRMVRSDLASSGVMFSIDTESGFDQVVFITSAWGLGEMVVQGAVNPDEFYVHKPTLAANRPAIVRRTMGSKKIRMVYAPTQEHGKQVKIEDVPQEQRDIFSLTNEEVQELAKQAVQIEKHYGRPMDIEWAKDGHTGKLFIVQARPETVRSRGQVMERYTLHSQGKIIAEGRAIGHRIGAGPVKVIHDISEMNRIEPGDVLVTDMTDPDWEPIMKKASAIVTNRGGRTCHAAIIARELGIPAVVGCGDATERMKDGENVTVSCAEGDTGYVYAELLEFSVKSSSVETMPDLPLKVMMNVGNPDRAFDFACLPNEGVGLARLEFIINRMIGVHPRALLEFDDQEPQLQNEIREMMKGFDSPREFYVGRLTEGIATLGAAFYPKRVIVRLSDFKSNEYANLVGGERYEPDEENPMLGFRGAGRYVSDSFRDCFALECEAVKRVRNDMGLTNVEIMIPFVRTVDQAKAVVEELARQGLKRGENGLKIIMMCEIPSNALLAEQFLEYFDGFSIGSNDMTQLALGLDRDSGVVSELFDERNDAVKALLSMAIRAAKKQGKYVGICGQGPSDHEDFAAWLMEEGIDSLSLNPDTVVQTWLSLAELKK
Method in brief: as §1

[6] = target: UniProt P22106; details: peptide sequence: QALEDSVK; direction: stabilized; replicate design: treated separately
Method in brief: as §1

[7] = target: UniProt P75957; details: peptide sequence: KKPAEINSR; direction: stabilized; replicate design: treated separately
Chain of UniProt P75957 (P75957 whole entry): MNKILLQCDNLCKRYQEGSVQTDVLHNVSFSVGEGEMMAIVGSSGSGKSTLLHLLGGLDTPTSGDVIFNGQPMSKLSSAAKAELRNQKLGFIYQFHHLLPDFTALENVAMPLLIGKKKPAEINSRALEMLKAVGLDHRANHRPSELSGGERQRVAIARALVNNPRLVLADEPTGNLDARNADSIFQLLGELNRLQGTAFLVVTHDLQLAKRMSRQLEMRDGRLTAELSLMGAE
Method in brief: as §1

[8] = target: UniProt P31142; details: peptide sequence: FNAEVDEPRPGLR; direction: stabilized; replicate design: treated separately
Chain of UniProt P31142 (P31142 whole entry): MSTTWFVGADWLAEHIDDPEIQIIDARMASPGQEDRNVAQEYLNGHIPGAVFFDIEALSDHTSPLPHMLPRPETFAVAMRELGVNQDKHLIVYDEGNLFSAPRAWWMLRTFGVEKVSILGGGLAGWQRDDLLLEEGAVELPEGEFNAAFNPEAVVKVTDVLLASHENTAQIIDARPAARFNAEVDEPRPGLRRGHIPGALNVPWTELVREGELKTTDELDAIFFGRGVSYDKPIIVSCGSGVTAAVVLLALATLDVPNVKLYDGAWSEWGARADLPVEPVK
Method in brief: as §1

[9] = target: UniProt P75828; details: peptide sequence: YLDIINR; direction: stabilized; replicate design: treated separately
Method in brief: as §1

[10] = target: UniProt P76014; details: peptide sequence: VVEKLPAIADKDIGFILK; direction: stabilized; replicate design: treated separately
Method in brief: as §1

[11] = target: UniProt P06710; details: peptide sequence: ALDVEQIR; direction: stabilized; replicate design: treated separately
Chain of UniProt P06710 (P06710 whole entry): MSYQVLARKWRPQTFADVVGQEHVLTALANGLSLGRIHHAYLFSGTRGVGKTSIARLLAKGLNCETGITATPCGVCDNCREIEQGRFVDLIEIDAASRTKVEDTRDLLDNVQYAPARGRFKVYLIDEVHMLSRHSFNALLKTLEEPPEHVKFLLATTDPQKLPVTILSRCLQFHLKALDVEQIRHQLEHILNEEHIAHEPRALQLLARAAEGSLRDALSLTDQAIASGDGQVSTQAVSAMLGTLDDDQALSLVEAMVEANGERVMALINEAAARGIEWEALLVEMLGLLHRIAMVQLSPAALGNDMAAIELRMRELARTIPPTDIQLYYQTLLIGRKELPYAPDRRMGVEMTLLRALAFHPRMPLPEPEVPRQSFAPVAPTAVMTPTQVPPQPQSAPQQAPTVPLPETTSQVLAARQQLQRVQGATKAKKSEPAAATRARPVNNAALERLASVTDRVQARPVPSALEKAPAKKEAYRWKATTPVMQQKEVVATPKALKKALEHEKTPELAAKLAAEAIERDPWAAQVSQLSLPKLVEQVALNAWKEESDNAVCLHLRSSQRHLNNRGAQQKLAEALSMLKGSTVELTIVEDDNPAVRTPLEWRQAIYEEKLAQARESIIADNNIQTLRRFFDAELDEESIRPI
Method in brief: as §1

[12] = target: UniProt Q06065; details: peptide sequence: QPVCNAGEVK; direction: stabilized; replicate design: treated separately
Method in brief: as §1

[13] = target: UniProt P25742; details: peptide sequence: GCETKPITGLAGK; direction: stabilized; replicate design: treated separately
Method in brief: as §1

[14] = target: UniProt P23837; details: peptide sequence: VDTLRPGQGVGLAVAR; direction: stabilized; replicate design: treated separately
Chain of UniProt P23837 (P23837 whole entry): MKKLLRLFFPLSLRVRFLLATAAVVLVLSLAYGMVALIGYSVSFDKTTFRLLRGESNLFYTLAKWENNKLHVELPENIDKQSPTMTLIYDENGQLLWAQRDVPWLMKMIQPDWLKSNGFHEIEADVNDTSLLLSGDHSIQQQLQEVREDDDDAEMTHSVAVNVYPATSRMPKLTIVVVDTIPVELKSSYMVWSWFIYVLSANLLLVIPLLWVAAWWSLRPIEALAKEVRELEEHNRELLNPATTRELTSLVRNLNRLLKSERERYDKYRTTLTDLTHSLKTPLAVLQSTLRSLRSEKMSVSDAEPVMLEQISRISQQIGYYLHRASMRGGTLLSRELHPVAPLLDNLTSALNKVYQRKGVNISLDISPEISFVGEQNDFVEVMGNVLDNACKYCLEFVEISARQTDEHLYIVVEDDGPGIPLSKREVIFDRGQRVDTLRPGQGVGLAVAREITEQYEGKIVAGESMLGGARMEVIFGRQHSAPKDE
Method in brief: as §1

[15] = target: UniProt P24230; details: peptide sequence: LVQGDVGSGK; direction: stabilized; replicate design: treated separately
Method in brief: as §1

[16] = target: UniProt P13009; details: peptide sequence: TPPVTLEAAR; direction: stabilized; replicate design: treated separately
Method in brief: as §1

[17] = target: UniProt P14081; details: peptide sequence: LFITAATEGR; direction: stabilized; replicate design: treated separately
Chain of UniProt P14081 (P14081 whole entry): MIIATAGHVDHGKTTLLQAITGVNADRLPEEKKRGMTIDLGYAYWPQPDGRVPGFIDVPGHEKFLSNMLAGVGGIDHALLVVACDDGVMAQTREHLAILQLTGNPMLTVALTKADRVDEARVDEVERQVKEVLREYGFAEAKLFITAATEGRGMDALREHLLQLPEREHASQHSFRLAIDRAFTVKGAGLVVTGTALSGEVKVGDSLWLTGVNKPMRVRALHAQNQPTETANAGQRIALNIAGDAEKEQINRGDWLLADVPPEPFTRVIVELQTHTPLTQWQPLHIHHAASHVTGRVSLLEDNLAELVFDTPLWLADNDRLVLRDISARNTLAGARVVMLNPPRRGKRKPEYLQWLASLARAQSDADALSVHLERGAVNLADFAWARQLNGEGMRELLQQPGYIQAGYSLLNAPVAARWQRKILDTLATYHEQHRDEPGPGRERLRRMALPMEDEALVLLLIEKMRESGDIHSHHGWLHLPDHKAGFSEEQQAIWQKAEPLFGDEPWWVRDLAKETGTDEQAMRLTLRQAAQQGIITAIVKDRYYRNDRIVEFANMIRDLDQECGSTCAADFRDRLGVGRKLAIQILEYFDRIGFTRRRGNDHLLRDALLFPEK
Method in brief: as §1

[18] = target: UniProt P39410; details: peptide sequence: HIAQEMPEK; direction: stabilized; replicate design: treated separately
Method in brief: as §1

[19] = target: UniProt P76419; details: peptide sequence: GGDCAPTREELLLAHK; direction: stabilized; replicate design: treated separately
Method in brief: as §1

[20] = target: UniProt P21599; details: peptide sequence: VLEVQGMK; direction: stabilized; replicate design: treated separately
Method in brief: as §1

[21] = target: UniProt P21507; details: peptide sequence: DVLGSAPTGTGK; direction: stabilized; replicate design: treated separately
Method in brief: as §1

[22] = target: UniProt P04425; details: peptide sequence: GTLIVNKPQSLR; direction: stabilized; replicate design: treated separately
Method in brief: as §1

[23] = target: UniProt P37760; details: peptide sequence: TGQVGWELQR; direction: stabilized; replicate design: treated separately
Chain of UniProt P37760 (P37760 whole entry): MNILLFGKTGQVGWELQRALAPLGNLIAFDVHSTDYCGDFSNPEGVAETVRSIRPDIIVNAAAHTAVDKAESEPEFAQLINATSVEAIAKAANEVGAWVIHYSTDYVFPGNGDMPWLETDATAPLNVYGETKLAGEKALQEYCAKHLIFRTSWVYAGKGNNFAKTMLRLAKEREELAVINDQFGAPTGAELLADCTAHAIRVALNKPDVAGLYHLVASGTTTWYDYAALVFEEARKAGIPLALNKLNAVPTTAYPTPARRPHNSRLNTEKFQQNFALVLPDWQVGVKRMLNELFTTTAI
Method in brief: as §1

[24] = target: UniProt P30176; details: peptide sequence: AKFEQHAELR; direction: stabilized; replicate design: treated separately
Method in brief: as §1

[25] = target: UniProt P64610; details: peptide sequence: YYAHLGR; direction: stabilized; replicate design: treated separately
Method in brief: as §1

[26] = target: UniProt P43329; details: peptide sequence: HTEILPLYAR; direction: stabilized; replicate design: treated separately
Method in brief: as §1

[27] = target: UniProt P0A6H5; details: peptide sequence: LANAPFIK; direction: stabilized; replicate design: treated separately
Chain of UniProt P0A6H5 (P0A6H5 whole entry): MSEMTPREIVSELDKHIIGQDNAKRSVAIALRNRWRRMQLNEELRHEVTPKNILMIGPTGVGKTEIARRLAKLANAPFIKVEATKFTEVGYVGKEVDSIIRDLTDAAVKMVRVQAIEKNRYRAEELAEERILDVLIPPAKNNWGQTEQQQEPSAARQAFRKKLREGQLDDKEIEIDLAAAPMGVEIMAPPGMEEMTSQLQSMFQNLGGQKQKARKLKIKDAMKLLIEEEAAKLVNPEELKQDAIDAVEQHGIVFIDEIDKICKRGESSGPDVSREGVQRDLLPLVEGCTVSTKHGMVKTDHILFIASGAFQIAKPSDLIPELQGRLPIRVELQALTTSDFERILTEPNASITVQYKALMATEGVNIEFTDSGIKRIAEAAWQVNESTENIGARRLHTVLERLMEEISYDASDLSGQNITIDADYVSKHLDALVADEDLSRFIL
Method in brief: as §1

[28] = target: UniProt P33593; details: peptide sequence: LADDVAVMSDGK; direction: stabilized; replicate design: treated separately
Method in brief: as §1

[29] = target: UniProt P37744; details: peptide sequence: LSVAMMGR; direction: stabilized; replicate design: treated separately
Chain of UniProt P37744 (P37744 whole entry): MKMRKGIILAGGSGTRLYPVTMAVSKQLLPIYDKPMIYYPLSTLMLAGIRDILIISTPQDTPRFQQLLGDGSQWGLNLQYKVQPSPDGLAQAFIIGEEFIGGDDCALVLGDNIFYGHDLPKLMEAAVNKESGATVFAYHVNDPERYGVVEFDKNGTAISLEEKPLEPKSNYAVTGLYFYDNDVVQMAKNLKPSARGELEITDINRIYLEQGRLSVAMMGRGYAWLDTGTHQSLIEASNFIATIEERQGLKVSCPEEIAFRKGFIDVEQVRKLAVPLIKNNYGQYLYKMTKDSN
Method in brief: as §1

[30] = target: UniProt P33919; details: peptide sequence: VLVLAHVK; direction: stabilized; replicate design: treated separately
Method in brief: as §1

[31] = target: UniProt P77499; details: peptide sequence: GKDLLALSPEDR; direction: stabilized; replicate design: treated separately
Method in brief: as §1

Nc1ncnc2c1ncn2[C@@H]1O[C@H](COP(=O)(O)OP(=O)(O)OP(=O)(O)O)[C@@H](O)[C@H]1O [adenosine 5'-triphosphate]
pEC50 of peptide local stability change [1]: 3.96 | pEC50 of peptide local stability change [2]: 2.53 | pEC50 of peptide local stability change [3]: 2.19 | pEC50 of peptide local stability change [4]: 3.2 | pEC50 of peptide local stability change [5]: 4.42 | pEC50 of peptide local stability change [6]: 2.42 | pEC50 of peptide local stability change [7]: 3.56 | pEC50 of peptide local stability change [8]: 3.24 | pEC50 of peptide local stability change [9]: 2.65 | pEC50 of peptide local stability change [10]: 3.61 | pEC50 of peptide local stability change [11]: 3.78 | pEC50 of peptide local stability change [12]: 3.47 | pEC50 of peptide local stability change [13]: 2.67 | pEC50 of peptide local stability change [14]: 3.21 | pEC50 of peptide local stability change [15]: 2.78 | pEC50 of peptide local stability change [16]: 2.53 | pEC50 of peptide local stability change [17]: 3.42 | pEC50 of peptide local stability change [18]: 3.92 | pEC50 of peptide local stability change [19]: 3.74 | pEC50 of peptide local stability change [20]: 2.4 | pEC50 of peptide local stability change [21]: 4.35 | pEC50 of peptide local stability change [22]: 3.85 | pEC50 of peptide local stability change [23]: 3.12 | pEC50 of peptide local stability change [24]: 2.71 | pEC50 of peptide local stability change [25]: 4.1 | pEC50 of peptide local stability change [26]: 3.11 | pEC50 of peptide local stability change [27]: 3.26 | pEC50 of peptide local stability change [28]: 4.43 | pEC50 of peptide local stability change [29]: 3.22 | pEC50 of peptide local stability change [30]: 4.16 | pEC50 of peptide local stability change [31]: 3.9
